Test results: US6919309B2, “Methods and compositions for inhibiting angiogenesis” (Northwestern University, priority 1997, dated 2005)

B1: truncated peptide: trypsin-truncated PEDF missing the approximately 3-5 kDa carboxy-terminal portion (protein, listed as Homo Sapiens)
chain: NPASPPEEGSPDPDSTGALVEEEDPFFKVPVNKLAAAVSNFGYDLYRVRSSMSPTTNVLLSPLSVATALSALSLGADERTESIIHRALYYDLISSPDIHGTYKELLDTVTAPQKNLKSASRIVFEKKLRIKSSFVAPLEKSYGTRPRVLTGNPRLDLQEINNWVQAQMKGKLARSTKEIPDEISILLLGVAHFKGQWVTKFDSRKTSLEDFYLDEERTVRVPMMSDPKAVLRYGLDSDLSCKIAQLPLTGSMSIIFFLPLKVTQNLTLIEESLTSEFIHDIDRELKTVQAVLTVPKLKLSYEGEVTKSLQEMKLQSLFDSPDFSKITGKPIKLTQVEHRAGFEWNEDGAGTTPSPGLQPAHL

Experiments:
[1] = test system: human dermal microvascular endothelial cells; experiment: Endothelial cell migration assay (modified Boyden chamber), human dermal microvascular endothelial cells; format: cell-based; conditions: VEGF 200 pg/ml gradient; FIG. 7
Method: (§1) The cells were plated on gelatinized Nucleopore membranes (5 μm pores for bovine capillary cells and 8 μm pores for other cells) in an inverted modified Boyden chamber. After two hours, the chamber was reinverted and test substances added to the top wells of each. Specifically, populations were exposed to either culture medium alone (control), 10 ng/ml bFGF, 2 nM PEDF (full length PEDF), or both 10 ng/ml bFGF (basic fibroblast growth factor) and 10 nM PEDF. The cells were then permitted to migrate for 3-4 hours. Following this, the membranes were fixed and stained, and the number of cells that had migrated were counted.
Additional truncated peptides derived from PEDF were tested for efficacy in the endothelial cell migration assay using human dermal microvascular endothelial cells (Clonetics, Cell Systems) at passage 9 in a modified Boyden Chamber, as described above, and the results are shown in FIG. 7. In FIG. 7A, the cells were exposed to the gradient of VEGF in the presence of purified recombinant PEDF (rPEDF), bacterially produced PEDF (BH) or PEDF peptides containing only amino acid residues 78-121 (44-mer) and 44-77 (34-mer) referring to SEQ ID NO:1. Neutralizing antibodies were added where shown to verify if the anti-angiogenic effect is specific to PEDF peptides and not due to contamination. Both full length PEDF preparations were used at 25 nM, neutralizing polyclonal antiserum against PEDF was used at 1:200 dilution, recombinant human VEGF (R&D Systems) at 200 pg/ml. In FIG. 7B, the cells were exposed to the gradient of VEGF in the presence of increasing concentrations of 34-mer and 44-mer peptides. The antiserum used in this experiment was not affinity purified, whereas the antiserum used in all other experiments presented herein was affinity purified.

[2] = test system: bovine adrenal capillary endothelial cells; experiment: Endothelial cell migration assay (modified Boyden chamber), bovine adrenal capillary endothelial cells; format: cell-based; conditions: migration towards bFGF; FIGS. 4 and 5
Method: as §1
The amount of a given factor necessary to achieve 50% of migration was determined and is reported here as ED50.
In particular, aFGF was employed at a concentration of 50 ng/ml, bFGF was employed at a concentration of 10 ng/ml, IL-8 was employed at a concentration of 40 ng/ml, PDGF was employed at a concentration of 250 pg/ml, and VEGF was employed at a concentration of 100 pg/ml.
In studies aimed at identifying antiangiogenic factors in the eye that might be regulated by the retinoblastoma tumor suppressor gene (Rb), media was fractionated where the media was previously conditioned by a retinoblastoma cell line that had been infected with a retrovirus expressing the wild-type Rb gene, WERI-Rb-27R. (Xu et al., 1991, Cancer Res. 51:4481). […] PEDF was purified from WERI-Rb-27R serum-free conditioned media by sequential steps consisting of dialysis (molecular mass cutoff, 30 kD) against distilled water, 60 to 95% ammonium sulfate precipitation, step elution from lentil lectin Sepharose 4B (Pharmacia) with 0.5 M α-methyl-D-mannopyranoside, and elution from a HiTrap heparin Sepharose column (Pharmacia) with increasing NACl gradient. (Xu, et al., 1991, Cancer Res. 51:4481). […] Migration assays were performed in quadruplicate for each sample with bovine adrenal capillary endothelial cells or human dermal microvascular endothelial cells (Clonetics, San Diego, Calif.) as described. (Polverini, et al., 1991, Methods Enzymol. 198:440). To combine multiple experiments, background migration (Bkgd) was first subtracted toward vehicle (0.1% bovine serum albumin) and them normalized data by setting maximum migration toward inducer alone to 100%. All experiments were repeated two to five times. Statistics were performed on raw data before normalization with the Student's t test. Standard errors were converted to percentages. […] Single-letter abbreviations for the amino acid residues are as follows: A, Ala; D, Asp; E. Glu; F. Phe; G, Gly; I, Ile; L, Leu; M, Met; P, Pro; Q, Gln; R, Arg; S, Ser; T, Thr; V, Val; X, any amino acid; and Y, Tyr.

Row | Molecule | anti-angiogenic activity (block of migration towards VEGF) [1] | potency at inhibiting endothelial cell migration, dose response [2]
1 | 44 amino acid peptide: PEDF peptide containing only amino acid residues 78-121 of SEQ ID NO:1 (VLLSPLSVATALSALSLGADERTESIIHRALYYDLISSPDIHGT; listed as Homo Sapiens) | not active as an anti-angiogenic agent | 
2 | MQALVLLLCIGALLGHSSCQNPASPPEEGSPDPDSTGALVEEEDPFFKVPVNKLAAAVSNFGYDLYRVRSSMSPTTNVLLSPLSVATALSALSLGADERTESIIHRALYYDLISSPDIHGTYKELLDTVTAPQKNLKSASRIVFEKKLRIKSSFVAPLEKSYGTRPRVLTGNPRLDLQEINNWVQAQMKGKLARSTKEIPDEISILLLGVAHFKGQWVTKFDSRKTSLEDFYLDEERTVRVPMMSDPKAVLRYGLDSDLSCKIAQLPLTGSMSIIFFLPLKVTQNLTLIEESLTSEFIHDIDRELKTVQAVLTVPKLKLSYEGEVTKSLQEMKLQSLFDSPDFSKITGKPIKLTQVEHRAGFEWNEDGAGTTPSPGLQPAHLTFPLDYHLNQPFIFVLRDTDTGALLFIGKILDPRGP [34 amino acid peptide] | active as an anti-angiogenic agent | 
3 | B1 |  | similarly potent at inhibiting endothelial cell migration
